Measured values from US20110245164A1 (INDIANA UNIVERSITY RESEARCH AND TECHNOLOGY, published 2011).
Non-standard residues stand in square brackets, D forms with d. Residues, ends and D or L forms follow the SMILES beside them. No end group written: not given here. Aze = O=C(O)[C@@H]1CCN1; Aib = CC(C)(N)C(=O)O

Tests used:
[1] = biological target: Insulin Receptor (Homo sapiens, UniProt P06213); test: Insulin receptor binding assay (competition, scintillation proximity)
[2] = physchem; conditions: buffer
Method: (§1) The solution was incubated at 37° C. […] The dipeptide cleavage was quenched by lowering the pH with an equal volume of 0.1% TFA. The rate of cleavage was qualitatively monitored by LC-MS and quantitatively studied by HPLC. The retention time and relative peak area for the prodrug and the parent model peptide were quantified using Peak Simple Chromatography software.
(§2) The flow rate was 1 ml/min. Solvent A contained 0.1% TFA in distilled water, and solvent B contained 0.1% TFA in 90% CH3CN. A linear gradient was employed (0% to 30% B in 10 minutes). The data were collected and analyzed using Peak Simple Chromatography software.
(§3) The rate of cleavage was determined for the respective propeptides. The concentrations of the propeptides and the model parent peptide were determined by their respective peak areas. The first order dissociation rate constants of the prodrugs were determined by plotting the logarithm of the concentration of the prodrug at various time intervals. The slope of this plot provides the rate constant ‘k’.

[3] = Rate of model dipeptide cleavage from model hexapeptide in PBS (HPLC); conditions: buffer
Method: as §1, §2, §3

[4] = biological target: human IGF-1 receptor (human, UniProt P08069 31-1367); test: cell-based or functional assay

Sequence of Insulin Receptor (P06213 28-758 limits assumed): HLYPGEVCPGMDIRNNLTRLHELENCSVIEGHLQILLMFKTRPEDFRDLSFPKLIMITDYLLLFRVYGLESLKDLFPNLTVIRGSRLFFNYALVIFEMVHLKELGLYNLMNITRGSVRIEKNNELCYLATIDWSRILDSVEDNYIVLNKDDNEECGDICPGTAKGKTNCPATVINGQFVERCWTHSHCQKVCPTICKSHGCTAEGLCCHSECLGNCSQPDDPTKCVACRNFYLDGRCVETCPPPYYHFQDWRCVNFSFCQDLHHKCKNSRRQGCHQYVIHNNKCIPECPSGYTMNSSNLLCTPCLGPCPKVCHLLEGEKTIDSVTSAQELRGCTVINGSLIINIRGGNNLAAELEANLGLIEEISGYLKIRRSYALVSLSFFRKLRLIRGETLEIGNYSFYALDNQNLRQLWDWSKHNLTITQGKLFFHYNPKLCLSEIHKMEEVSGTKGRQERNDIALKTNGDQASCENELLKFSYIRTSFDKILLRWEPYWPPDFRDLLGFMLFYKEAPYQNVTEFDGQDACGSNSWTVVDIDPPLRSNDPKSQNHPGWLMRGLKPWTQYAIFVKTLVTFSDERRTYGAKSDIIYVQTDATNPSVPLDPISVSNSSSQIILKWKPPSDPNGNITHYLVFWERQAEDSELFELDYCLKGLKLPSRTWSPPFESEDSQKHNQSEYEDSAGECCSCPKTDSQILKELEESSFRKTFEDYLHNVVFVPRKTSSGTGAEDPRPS
Sequence of Insulin Receptor (P06213 763-1382 partner limits assumed): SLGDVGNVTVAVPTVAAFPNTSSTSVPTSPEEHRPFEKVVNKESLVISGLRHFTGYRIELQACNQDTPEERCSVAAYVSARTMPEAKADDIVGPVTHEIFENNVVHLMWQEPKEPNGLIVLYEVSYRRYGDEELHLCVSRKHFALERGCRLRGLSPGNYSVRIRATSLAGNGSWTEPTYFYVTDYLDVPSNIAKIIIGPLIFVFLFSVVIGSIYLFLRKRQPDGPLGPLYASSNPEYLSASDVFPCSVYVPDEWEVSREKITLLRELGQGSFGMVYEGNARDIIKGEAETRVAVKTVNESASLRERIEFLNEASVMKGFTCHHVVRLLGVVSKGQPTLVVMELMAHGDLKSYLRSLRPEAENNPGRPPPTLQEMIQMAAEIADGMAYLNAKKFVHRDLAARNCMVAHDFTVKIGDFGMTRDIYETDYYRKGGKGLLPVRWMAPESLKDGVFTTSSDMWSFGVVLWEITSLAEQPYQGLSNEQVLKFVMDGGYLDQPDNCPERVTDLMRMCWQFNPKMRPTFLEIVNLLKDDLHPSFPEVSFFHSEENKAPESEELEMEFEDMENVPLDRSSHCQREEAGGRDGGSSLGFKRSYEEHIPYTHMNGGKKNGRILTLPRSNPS

CC[C@H](C)[C@H](NC(=O)CNC(=O)[C@@H]1CCCN1C(=O)[C@H](C)N)C(=O)N[C@H](C(=O)N[C@@H](CC(=O)O)C(=O)N[C@@H](CCC(=O)O)C(=O)N[C@H]1CSSC[C@@H]2NC(=O)[C@H](CO)NC(=O)[C@H](CCCNC(=N)N)NC(=O)[C@H](Cc3ccccc3)NC(=O)[C@H](CSSC[C@H](NC(=O)[C@H](CC(C)C)NC(=O)[C@@H](NC(=O)[C@H](CCC(=O)O)NC(=O)[C@@H]3CCCN3C(=O)CN)[C@@H](C)O)C(=O)NCC(=O)N[C@@H](C)C(=O)N[C@@H](CCC(=O)O)C(=O)N[C@@H](CC(C)C)C(=O)N[C@@H](C(C)C)C(=O)N[C@@H](CC(=O)O)C(=O)N[C@@H](C)C(=O)N[C@@H](CC(C)C)C(=O)N[C@@H](Cc3ccc(O)cc3)C(=O)N[C@@H](CC(C)C)C(=O)N[C@@H](C(C)C)C(=O)N[C@H](C(=O)NCC(=O)N[C@@H](CC(=O)O)C(=O)N[C@@H](CCCNC(=N)N)C(=O)NCC(=O)N[C@@H](Cc3ccccc3)C(=O)N[C@@H](Cc3ccc(O)cc3)C(=O)N[C@@H](Cc3ccccc3)C(=O)N[C@@H](CC(N)=O)C(=O)N[C@@H](CCCCN)C(=O)N3CCC[C@H]3C(=O)N[C@H](C(N)=O)[C@@H](C)O)CSSC[C@@H](C(=O)N[C@@H](C)C(N)=O)NC(=O)[C@H](Cc3ccc(O)cc3)NC(=O)[C@H](CCSC)NC(=O)[C@H](CCC(=O)O)NC(=O)[C@H](CC(C)C)NC(=O)[C@H](CCCNC(=N)N)NC(=O)[C@H](CCCNC(=N)N)NC(=O)[C@H](CC(C)C)NC(=O)[C@H](CC(=O)O)NC2=O)NC1=O)C(C)C [IGF1(Y^B16L^B17)(AlaPro)^A-1,0]
insulin receptor binding, in words ([1]; compared with native insulin): substantially reduced affinity for the insulin receptor

C[C@@H](O)[C@H](NC(=O)CNC(=O)[C@H](CCCNC(=N)N)NC(=O)[C@H](CO)NC(=O)[C@H](Cc1c[nH]cn1)NC(=O)[C@@H]1CCN1C(=O)C(C)(C)N)C(=O)N[C@@H](Cc1ccccc1)C(N)=O [Compound 26] (H-[Aib][Aze]HSRGTF-NH2)
half-life at 1 mg/ml [2]: > 500 h

CC[C@H](C)[C@H](NC(=O)CN)C(=O)N[C@H](C(=O)N[C@@H](CC(=O)O)C(=O)N[C@@H](CCC(=O)O)C(=O)N[C@H]1CSSC[C@@H]2NC(=O)[C@H](CO)NC(=O)[C@H](CCCNC(=N)N)NC(=O)[C@H](Cc3ccccc3)NC(=O)[C@H](CSSC[C@H](NC(=O)[C@H](CC(C)C)NC(=O)[C@@H](NC(=O)[C@H](CCC(=O)O)NC(=O)[C@@H]3CCCN3C(=O)CN)[C@@H](C)O)C(=O)NCC(=O)N[C@@H](C)C(=O)N[C@@H](CCC(=O)O)C(=O)N[C@@H](CC(C)C)C(=O)N[C@@H](C(C)C)C(=O)N[C@@H](CC(=O)O)C(=O)N[C@@H](C)C(=O)N[C@@H](CC(C)C)C(=O)N[C@@H](Cc3ccc(O)cc3)C(=O)N[C@@H](CC(C)C)C(=O)N[C@@H](C(C)C)C(=O)N[C@H](C(=O)NCC(=O)N[C@@H](CC(=O)O)C(=O)N[C@@H](CCCNC(=N)N)C(=O)NCC(=O)N[C@@H](Cc3ccccc3)C(=O)N[C@@H](Cc3ccc(O)cc3)C(N)=O)CSSC[C@@H](C(=O)N[C@@H](C)C(N)=O)NC(=O)[C@H](Cc3ccc(O)cc3)NC(=O)[C@H](CCSC)NC(=O)[C@H](CCC(=O)O)NC(=O)[C@H](CC(C)C)NC(=O)[C@H](CCCNC(=N)N)NC(=O)[C@H](CCCNC(=N)N)NC(=O)[C@H](CC(C)C)NC(=O)[C@H](CC(=O)O)NC2=O)NC1=O)C(C)C [IGF-1 A:B (E10Y16L17) DPI]
Ratio ([1]; Table 9, IGF-1 receptor IC50 versus insulin receptor IC50): 60.2

C[C@@H](O)[C@H](NC(=O)CNC(=O)[C@H](CCCNC(=N)N)NC(=O)[C@H](CO)NC(=O)[C@H](Cc1c[nH]cn1)NC(=O)[C@H](Cc1ccccc1)N(C)C(=O)[C@H](N)CCCCN)C(=O)N[C@@H](Cc1ccccc1)C(N)=O [Compound 32]
half-life at 1 mg/ml [3]: 57 h

C[C@@H](O)[C@H](NC(=O)CNC(=O)[C@H](CCCNC(=N)N)NC(=O)[C@H](CO)NC(=O)[C@H](Cc1c[nH]cn1)NC(=O)[C@H](C)N(C)C(=O)[C@H](N)CCCCN)C(=O)N[C@@H](Cc1ccccc1)C(N)=O [Compound 31]
half-life at 1 mg/ml [3]: 14 h

B1: IGF-1 A (H8 A9 N21):B(H5D10Y16L17 A22) DPI A-COOH (ligand)
chain 1: GIVDECCHASCDLRRLEMYCN-OH
chain 2: GPEHLCGADLVDALYLVCGDAGFY
modifications: not fully specified (bridges); cysteine pairing not given here
% IGF [4]: 7.7%
